From ChEMBL document CHEMBL3885881, “DrugMatrix”

Species: Rattus norvegicus
Assay: DrugMatrix - Regimen: Daily Repeat
Type: toxicity, organism-based, Sprague-Dawley
Parameters: regimen Daily Repeat, gender Male, age 6-8 weeks
Details: in vivo, po, route oral GAVAGE, […]; for BASOPHIL / EOSINOPHIL / ERYTHROCYTE COUNT / HEMATOCRIT / HEMOGLOBIN / LEUKOCYTE COUNT / LYMPHOCYTE / MEAN CORPUSCULAR HEMOGLOBIN / MEAN CORPUSCULAR HEMOGLOBIN CONCENTRATION / MEAN CORPUSCULAR VOLUME / MONOCYTE / NEUTROPHIL / PLATELET COUNT / ABSOLUTE BASOPHIL / ABSOLUTE EOSINOPHIL / ABSOLUTE LYMPHOCYTE / ABSOLUTE MONOCYTE / ABSOLUTE SEGMENTED NEUTROPHIL / NUCLEATED RED BLOOD CELLS: tissue Blood; for ALANINE AMINOTRANSFERASE / ALBUMIN / ALKALINE PHOSPHATASE / ASPARTATE AMINOTRANSFERASE / BLOOD UREA NITROGEN / CHLORIDE / CHOLESTEROL / CREATINE PHOSPHOKINASE / CREATININE / GLUCOSE / PHOSPHORUS / POTASSIUM / SODIUM / TOTAL BILIRUBIN / TOTAL PROTEIN / CARBON DIOXIDE / LACTATE DEHYDROGENASE / LIPASE / URIC ACID: tissue Plasma
[1] = 0 mg/kg, 120 h, dose level Control, time 5 day
[2] = 0 mg/kg, dose level Control, time 28 day
[3] = 11 mg/kg, 72 h, dose level High, time 3 day
[4] = 11 mg/kg, 120 h, dose level High, time 5 day

## O=[N+]([O-])c1cc([As](=O)(O)O)ccc1O [ROXARSONE]
[1]
  BASOPHIL: 0.32%
  EOSINOPHIL: 0.58%
  ERYTHROCYTE COUNT: 7.26 x10E6/uL
  HEMATOCRIT: 46.94%
  HEMOGLOBIN: 14.9 G/DL
  LEUKOCYTE COUNT: 8.69 x10E3/uL
  LYMPHOCYTE: 81.52%
  MEAN CORPUSCULAR HEMOGLOBIN: 20.58 pg
  MEAN CORPUSCULAR HEMOGLOBIN CONCENTRATION: 31.8 G/DL
  MEAN CORPUSCULAR VOLUME: 64.68 fL
  MONOCYTE: 2.16%
  NEUTROPHIL: 13.88%
  PLATELET COUNT: 1531.2 x10E3/uL
  ALANINE AMINOTRANSFERASE: 33.2 u/L
  ALBUMIN: 3.74 G/DL
  ALKALINE PHOSPHATASE: 318 u/L
  ASPARTATE AMINOTRANSFERASE: 78.6 u/L
  BLOOD UREA NITROGEN: 6 mg/dL
  CHLORIDE: 108.4 MEQ/L
  CHOLESTEROL: 63 mg/dL
  CREATINE PHOSPHOKINASE: 251 u/L
  CREATININE: 0.18 mg/dL
  GLUCOSE: 125.6 mg/dL
  PHOSPHORUS: 12.06 mg/dL
  POTASSIUM: 5.92 MEQ/L
  SODIUM: 146.8 MEQ/L
  TOTAL BILIRUBIN: 0.16 mg/dL
  TOTAL PROTEIN: 6.06 G/DL
[2]
  BASOPHIL: 0.42%
  EOSINOPHIL: 0.58%
  ERYTHROCYTE COUNT: 8.06 x10E6/uL
  HEMATOCRIT: 48.44%
  HEMOGLOBIN: 16.34 G/DL
  LEUKOCYTE COUNT: 13.04 x10E3/uL
  LYMPHOCYTE: 85.12%
  MEAN CORPUSCULAR HEMOGLOBIN: 20.26 pg
  MEAN CORPUSCULAR HEMOGLOBIN CONCENTRATION: 33.74 G/DL
  MEAN CORPUSCULAR VOLUME: 60.1 fL
  MONOCYTE: 1.44%
  NEUTROPHIL: 11.28%
  PLATELET COUNT: 1226 x10E3/uL
  ALANINE AMINOTRANSFERASE: 28.6 u/L
  ALBUMIN: 3.94 G/DL
  ALKALINE PHOSPHATASE: 254.6 u/L
  ASPARTATE AMINOTRANSFERASE: 67.8 u/L
  BLOOD UREA NITROGEN: 10.4 mg/dL
  CHLORIDE: 104.6 MEQ/L
  CHOLESTEROL: 57.6 mg/dL
  CREATINE PHOSPHOKINASE: 224.8 u/L
  CREATININE: 0.4 mg/dL
  GLUCOSE: 140.6 mg/dL
  PHOSPHORUS: 10.66 mg/dL
  POTASSIUM: 6.58 MEQ/L
  SODIUM: 148.6 MEQ/L
  TOTAL BILIRUBIN: 0.24 mg/dL
  TOTAL PROTEIN: 6.64 G/DL
[3]
  ABSOLUTE BASOPHIL: 0 CELLS/uL
  ABSOLUTE EOSINOPHIL: 38.67 CELLS/uL
  ABSOLUTE LYMPHOCYTE: 12107.67 CELLS/uL
  ABSOLUTE MONOCYTE: 206 CELLS/uL
  ABSOLUTE SEGMENTED NEUTROPHIL: 1247.67 CELLS/uL
  BASOPHIL: 0%
  EOSINOPHIL: 0.33%
  ERYTHROCYTE COUNT: 6.03 x10E6/uL
  HEMATOCRIT: 38.2%
  HEMOGLOBIN: 14.6 G/DL
  LEUKOCYTE COUNT: 13.6 x10E3/uL
  LYMPHOCYTE: 89%
  MEAN CORPUSCULAR HEMOGLOBIN: 24.2 pg
  MEAN CORPUSCULAR HEMOGLOBIN CONCENTRATION: 38.2 G/DL
  MEAN CORPUSCULAR VOLUME: 63.27 fL
  MONOCYTE: 1.67%
  NEUTROPHIL: 9%
  NUCLEATED RED BLOOD CELLS: 0 /100WBC
  PLATELET COUNT: 1141 x10E3/uL
  ALANINE AMINOTRANSFERASE: 88 u/L
  ALBUMIN: 3.93 G/DL
  ALKALINE PHOSPHATASE: 483.33 u/L
  ASPARTATE AMINOTRANSFERASE: 108 u/L
  BLOOD UREA NITROGEN: 10.67 mg/dL
  CARBON DIOXIDE: 29.33 mmol/L
  CHLORIDE: 100.67 MEQ/L
  CHOLESTEROL: 66.67 mg/dL
  CREATINE PHOSPHOKINASE: 464.67 u/L
  CREATININE: 0.15 mg/dL
  GLUCOSE: 142.67 mg/dL
  LACTATE DEHYDROGENASE: 448 u/L
  LIPASE: 11.67 u/L
  PHOSPHORUS: 11.03 mg/dL
  POTASSIUM: 6.34 MEQ/L
  SODIUM: 143.37 MEQ/L
  TOTAL BILIRUBIN: 0.2 mg/dL
  TOTAL PROTEIN: 5.6 G/DL
  URIC ACID: 1.6 mg/dL
[4]
  ABSOLUTE BASOPHIL: 0 CELLS/uL
  ABSOLUTE EOSINOPHIL: 0 CELLS/uL
  ABSOLUTE LYMPHOCYTE: 14104 CELLS/uL
  ABSOLUTE MONOCYTE: 363 CELLS/uL
  ABSOLUTE SEGMENTED NEUTROPHIL: 1099.67 CELLS/uL
  NUCLEATED RED BLOOD CELLS: 0 /100WBC
  CARBON DIOXIDE: 29.67 mmol/L
  LACTATE DEHYDROGENASE: 358.67 u/L
  LIPASE: 11.33 u/L
  URIC ACID: 1.37 mg/dL
